Patent US4122034A, “Antimicrobial compositions” (Schering Corporation, priority 1975, dated 1978)
≈ marks a conversion by molar mass, not a printed value.

What was measured:
Pseudomonas acruginosa = assay: In vitro antibacterial activity, dilution in Mueller Hinton Agar (Table I); format: cell-based
Procedure: (§1) All the tests were carried out and (when necessary) scored under standard conditions. "MIC" means "minimum inhibitory concentration."
(§2) In vitro Antibacterial Activity of 2-aminoalkyl-3-phenyl-
(§3) indoles of the formula I. Dilution in Mueller Hinton Agar pH 7.4

Salmonella = assay: as above; format: cell-based
Procedure: as §1, §2, §3

Proteus vulgaris = assay: as above; format: cell-based; settings: strain Napol, Mueller Hinton Agar pH 7.4
Procedure: as §1, §2, §3

Streptococcus pyogenes = assay: as above; format: cell-based
Procedure: as §1, §2, §3

Klebsiella = assay: as above; format: cell-based
Procedure: as §1, §2, §3

Escherichia coli = assay: as above; format: cell-based
Procedure: as §1, §2, §3

Proteus rettgeri = assay: as above; format: cell-based; settings: Providencia rettgeri; 'Proteus rettgeri mirabilis' [sic]; Mueller Hinton Agar pH 7.4
Procedure: as §1, §2, §3

Proteus mirabilis = assay: as above; format: cell-based; settings: Mueller Hinton Agar pH 7.4
Procedure: as §1, §2, §3

Enterococcus = assay: as above; format: cell-based
Procedure: as §1, §2, §3

Staphylococcus aureus = assay: as above; format: cell-based; settings: Mueller Hinton Agar pH 7.4
Procedure: as §1, §2, §3

Proteus morganii = assay: as above; format: cell-based; settings: Morganella morganii; strain Valz; Mueller Hinton Agar pH 7.4
Procedure: as §1, §2, §3

Trichophyton megninii = assay: In vitro antifungal activity, dilutions in Sabouraud's Dextrose Broth (Table IV); format: cell-based; settings: Trichophyton rubrum; after 96 hours
Procedure: as §1
(§4) In vitro Antifungal Activity of 2-amioalkyl-3-phenylindoles
(§5) of the formula I against Dermetophytes and Aspergillus.
(§6) Dilutions in Sabouraud's Dextrose Broth.

Aspergillus niger 6275 = assay: as above; format: cell-based; settings: after 96 hours
Procedure: as §1, §4, §5, §6

Trichophyton ascoides = assay: as above; format: cell-based; settings: after 96 hours
Procedure: as §1, §4, §5, §6

Trichophyton soudenense = assay: as above; format: cell-based; settings: after 96 hours
Procedure: as §1, §4, §5, §6

Trichophyton discoides = assay: as above; format: cell-based; settings: after 96 hours
Procedure: as §1, §4, §5, §6

Microsporum distortum = assay: as above; format: cell-based; settings: after 96 hours
Procedure: as §1, §4, §5, §6

Tricoderm sp. = assay: as above; format: cell-based; settings: after 96 hours
Procedure: as §1, §4, §5, §6

Trichophyton rubrum = assay: as above; format: cell-based; settings: 96 h
Procedure: as §1, §4, §5, §6

Epidermophyton floccosum = assay: as above; format: cell-based; settings: after 96 hours
Procedure: as §1, §4, §5, §6

Microsporum nanum = assay: as above; format: cell-based; settings: Nannizzia nana; after 96 hours
Procedure: as §1, §4, §5, §6

Trychomonas vaginalis = assay: In vitro Anti-Trichomonal activity (Table VII); format: cell-based
Procedure: as §1
In vitro Anti-Trichomonal Activity of some 2-aminoalkyl-3-
phenyl-indenes of formula II.

Candida albicans = assay: In vitro Anti-Candida activity, dilutions in Sabouraud's Dextrose Agar (Table III); format: cell-based; settings: 48 h
Procedure: as §1
In vitro Anti-Candida Activity of 2-aminoalkyl-3-phenyl-
indoles of the formula I. Dilutions in Sabouraud's Dextrose
MIC (mcg/ml) after 48 hours

T. mentagrophytes = assay: Effect against topical T. mentagrophytes infections in guinea pigs (Table VI); format: in vivo; parameters: Average Sum of lesion scores, Days 1-5 / Average Sum of lesion scores, Days 1-10: scale not given here; settings: for Average Sum of lesion scores, Days 1-5: untreated controls 14.8; for Average Sum of lesion scores, Days 1-10: untreated controls 38.2
Procedure: as §1
Effect of some 2-aminoalkyl-3-phenylindoles of the formula II
against topical T. mentagrophytes infections in guinea pigs.

SMILES: NCc1[nH]c2ccc(Cl)cc2c1-c1c(F)cccc1F [B, 2-aminomethyl-5-chloro-3-(2,6-difluorophenyl)indole]
- MIC (Pseudomonas acruginosa; pH 7.4, strain 130, Mueller Hinton Agar pH 7.4): 17.5 µg/mL (≈ 59.8 µM)
- MIC (Pseudomonas acruginosa; pH 7.4, strain 138, Mueller Hinton Agar pH 7.4): 17.5 µg/mL (≈ 59.8 µM)
- MIC (Pseudomonas acruginosa; pH 7.4, strain 762, Mueller Hinton Agar pH 7.4): 17.5 µg/mL (≈ 59.8 µM)
- MIC (Pseudomonas acruginosa; pH 7.4, strain 8709, Mueller Hinton Agar pH 7.4): 17.5 µg/mL (≈ 59.8 µM)
- MIC (Pseudomonas acruginosa; pH 7.4, strain Trav. 1, Mueller Hinton Agar pH 7.4): 17.5 µg/mL (≈ 59.8 µM)
- MIC (Salmonella; TYPHI, pH 7.4, B typhi, Mueller Hinton Agar pH 7.4): 7.5 µg/mL (≈ 25.6 µM)
- MIC (Salmonella; pH 7.4, C1 Oao, Mueller Hinton Agar pH 7.4): 7.5 µg/mL (≈ 25.6 µM)
- MIC (Salmonella; pH 7.4, C2 Cuban, Mueller Hinton Agar pH 7.4): 7.5 µg/mL (≈ 25.6 µM)
- MIC (Salmonella; pH 7.4, C2 Napc, Mueller Hinton Agar pH 7.4): 7.5 µg/mL (≈ 25.6 µM)
- MIC (Salmonella; pH 7.4, Salmonella ent. 1, Mueller Hinton Agar pH 7.4): 7.5 µg/mL (≈ 25.6 µM)
- MIC (Proteus vulgaris): 17.5 µg/mL (≈ 59.8 µM)
- MIC (Streptococcus pyogenes; pH 7.4, strain 27, Mueller Hinton Agar pH 7.4): 7.5 µg/mL (≈ 25.6 µM)
- MIC (Streptococcus pyogenes; pH 7.4, strain C, Mueller Hinton Agar pH 7.4): 17.5 µg/mL (≈ 59.8 µM)
- MIC (Streptococcus pyogenes; pH 7.4, strain Cruz, Mueller Hinton Agar pH 7.4): 3 µg/mL (≈ 10.2 µM)
- MIC (Klebsiella; pH 7.4, strain 121, Mueller Hinton Agar pH 7.4): 17.5 µg/mL (≈ 59.8 µM)
- MIC (Klebsiella; pH 7.4, strain 3020, Mueller Hinton Agar pH 7.4): 7.5 µg/mL (≈ 25.6 µM)
- MIC (Klebsiella; pH 7.4, strain AD17, Mueller Hinton Agar pH 7.4): 17.5 µg/mL (≈ 59.8 µM)
- MIC (Klebsiella; pH 7.4, strain AD22, Mueller Hinton Agar pH 7.4): 7.5 µg/mL (≈ 25.6 µM)
- MIC (Klebsiella; pH 7.4, strain G3694, Mueller Hinton Agar pH 7.4): 7.5 µg/mL (≈ 25.6 µM)
- MIC (Escherichia coli; pH 7.4, strain 777, Mueller Hinton Agar pH 7.4): 7.5 µg/mL (≈ 25.6 µM)
- MIC (Escherichia coli; pH 7.4, strain 1574-1, Mueller Hinton Agar pH 7.4): 7.5 µg/mL (≈ 25.6 µM)
- MIC (Escherichia coli; pH 7.4, strain 4195, Mueller Hinton Agar pH 7.4): 7.5 µg/mL (≈ 25.6 µM)
- MIC (Escherichia coli; pH 7.4, strain 10536, Mueller Hinton Agar pH 7.4): 7.5 µg/mL (≈ 25.6 µM)
- MIC (Escherichia coli; pH 7.4, strain JR66, Mueller Hinton Agar pH 7.4): 7.5 µg/mL (≈ 25.6 µM)
- MIC (Proteus rettgeri): 17.5 µg/mL (≈ 59.8 µM)
- MIC (Proteus mirabilis; pH 7.4, strain Hard): 17.5 µg/mL (≈ 59.8 µM)
- MIC (Proteus mirabilis; pH 7.4, strain Peras): 37.5 µg/mL (≈ 128 µM)
- MIC (Enterococcus; pH 7.4, strain 373, Mueller Hinton Agar pH 7.4): 7.5 µg/mL (≈ 25.6 µM)
- MIC (Enterococcus; pH 7.4, strain 0928/72, Mueller Hinton Agar pH 7.4): 17.5 µg/mL (≈ 59.8 µM)
- MIC (Staphylococcus aureus; 209P, pH 7.4, strain 209P): 7.5 µg/mL (≈ 25.6 µM)
- MIC (Staphylococcus aureus; pH 7.4, strain 59N): 7.5 µg/mL (≈ 25.6 µM)
- MIC (Staphylococcus aureus; pH 7.4, strain Gray): 7.5 µg/mL (≈ 25.6 µM)
- MIC (Staphylococcus aureus; pH 7.4, strain Wood): 7.5 µg/mL (≈ 25.6 µM)
- MIC (Staphylococcus aureus; pH 7.4, strain Zeigler): 7.5 µg/mL (≈ 25.6 µM)
- MIC (Proteus morganii): 17.5 µg/mL (≈ 59.8 µM)
- MIC (Trichophyton megninii): 7.5 µg/mL (≈ 25.6 µM)
- MIC (Aspergillus niger 6275): 37.5 µg/mL (≈ 128 µM)
- MIC (Trichophyton ascoides): 17.5 µg/mL (≈ 59.8 µM)
- MIC (Trichophyton soudenense): 17.5 µg/mL (≈ 59.8 µM)
- MIC (Trichophyton discoides): 17.5 µg/mL (≈ 59.8 µM)
- MIC (Microsporum distortum): 17.5 µg/mL (≈ 59.8 µM)
- MIC (Tricoderm sp.): 7.5 µg/mL (≈ 25.6 µM)
- MIC (Trichophyton rubrum; strain 3, after 96 hours): 17.5 µg/mL (≈ 59.8 µM)
- MIC (Trichophyton rubrum; strain 360, after 96 hours): 17.5 µg/mL (≈ 59.8 µM)
- MIC (Trichophyton rubrum; strain Blehl, after 96 hours): 17.5 µg/mL (≈ 59.8 µM)
- MIC (Trichophyton rubrum; strain Haggerty, after 96 hours): 17.5 µg/mL (≈ 59.8 µM)
- MIC (Epidermophyton floccosum): 17.5 µg/mL (≈ 59.8 µM)
- MIC (Microsporum nanum): 17.5 µg/mL (≈ 59.8 µM)
- IC50 (Trychomonas vaginalis; 50% suppression, read-out: Minimal Level to Produce 50% Suppression): 32 µg/mL (≈ 109 µM)
- IC90 (Trychomonas vaginalis; 90% suppression, read-out: Minimal Level to Produce 90% Suppression): 75 µg/mL (≈ 256 µM)
- MIC (Candida albicans; strain 1, after 48 hours): 150 µg/mL (≈ 512 µM)
- MIC (Candida albicans; strain 2, after 48 hours): 75 µg/mL (≈ 256 µM)
- MIC (Candida albicans; strain 3, after 48 hours): 150 µg/mL (≈ 512 µM)
- MIC (Candida albicans; strain 4, after 48 hours): 75 µg/mL (≈ 256 µM)
- MIC (Candida albicans; strain 5, after 48 hours): 75 µg/mL (≈ 256 µM)
- MIC (Candida albicans; strain 6, after 48 hours): 150 µg/mL (≈ 512 µM)
- MIC (Candida albicans; strain 8, after 48 hours): 150 µg/mL (≈ 512 µM)
- MIC (Candida albicans; strain 9, after 48 hours): 75 µg/mL (≈ 256 µM)
- MIC (Candida albicans; strain 29, after 48 hours): 75 µg/mL (≈ 256 µM)
- MIC (Candida albicans; strain Atkisson, after 48 hours): 75 µg/mL (≈ 256 µM)
- MIC (Candida albicans; strain Bertrand, after 48 hours): 150 µg/mL (≈ 512 µM)
- MIC (Candida albicans; strain Bevan, after 48 hours): 150 µg/mL (≈ 512 µM)
- MIC (Candida albicans; strain Blunden, after 48 hours): 75 µg/mL (≈ 256 µM)
- MIC (Candida albicans; strain Bognay, after 48 hours): 75 µg/mL (≈ 256 µM)
- MIC (Candida albicans; strain Boyer, after 48 hours): 150 µg/mL (≈ 512 µM)
- MIC (Candida albicans; strain Burke, after 48 hours): 75 µg/mL (≈ 256 µM)
- MIC (Candida albicans; strain Burnside, after 48 hours): 150 µg/mL (≈ 512 µM)
- MIC (Candida albicans; strain Collins, after 48 hours): 75 µg/mL (≈ 256 µM)
- MIC (Candida albicans; strain Fix, after 48 hours): 75 µg/mL (≈ 256 µM)
- MIC (Candida albicans; strain Frazier, after 48 hours): 150 µg/mL (≈ 512 µM)
- MIC (Candida albicans; strain Fulcher, after 48 hours): 75 µg/mL (≈ 256 µM)
- MIC (Candida albicans; strain Gay, after 48 hours): 150 µg/mL (≈ 512 µM)
- MIC (Candida albicans; strain Hons, after 48 hours): 150 µg/mL (≈ 512 µM)
- MIC (Candida albicans; strain Johnson, after 48 hours): 150 µg/mL (≈ 512 µM)
- MIC (Candida albicans; strain Kenndy 2, after 48 hours): 150 µg/mL (≈ 512 µM)
- MIC (Candida albicans; strain Kennedy 1, after 48 hours): 75 µg/mL (≈ 256 µM)
- MIC (Candida albicans; strain Lehtman, after 48 hours): 150 µg/mL (≈ 512 µM)
- MIC (Candida albicans; strain Lusk, after 48 hours): 75 µg/mL (≈ 256 µM)
- MIC (Candida albicans; strain Merkel, after 48 hours): 75 µg/mL (≈ 256 µM)
- MIC (Candida albicans; strain Newcomb, after 48 hours): 37.5 µg/mL (≈ 128 µM)
- MIC (Candida albicans; strain Sherod, after 48 hours): 150 µg/mL (≈ 512 µM)
- MIC (Candida albicans; strain Shurelli, after 48 hours): 150 µg/mL (≈ 512 µM)
- MIC (Candida albicans; strain Sparks, after 48 hours): 150 µg/mL (≈ 512 µM)
- MIC (Candida albicans; strain Tyner, after 48 hours): 150 µg/mL (≈ 512 µM)
- Average No. of Days to become negative, Cultures (T. mentagrophytes; concentration 1%): 9.6 days
- Average No. of Days to become negative, Lesion (T. mentagrophytes; concentration 1%): 14.2 days
- Average Sum of lesion scores, Days 1-5 (T. mentagrophytes; concentration 1%): 11.6
- Average Sum of lesion scores, Days 1-10 (T. mentagrophytes; concentration 1%): 20.0
- Average No. of Days to become negative, Cultures (T. mentagrophytes; concentration 4%): 5.0 days
- Average No. of Days to become negative, Lesion (T. mentagrophytes; concentration 4%): 7.2 days
- Average Sum of lesion scores, Days 1-5 (T. mentagrophytes; concentration 4%): 9.2
- Average Sum of lesion scores, Days 1-10 (T. mentagrophytes; concentration 4%): 10.0
